Source: patent US8637439B2, “Bathing gel with improved environmental profile” (Coty Inc., priority 2009, dated 2014)

Columns and labels:
[1] = test system: aquatic trophic levels (fish, crustaceous, algae); test: Acute aquatic toxicity (aquatic trophic levels); assay type: in vivo; details: L(E)C50/SFacute
Excerpt: (§1) A comparison of the relative aquatic toxicity profile of the long-chain alkyl hydroxyalkyl cellulose derivative compared to anionic alketh surfactant is shown in Table 3.
(§2) The terms used are defined as follows: • LC50 or EC50: Lethal or effect concentration 50=Concentration in water having 50% chance of causing adverse effects or death to aquatic life) • SFacute: Safety Factor, determined according the number of trophic levels (fish, crustaceous, algae) studied (the largest, the best) • TFacute: L(E)C50/SFacute • NOEC: No observed effect concentration=The highest concentration for which the difference from the control group is not statistically significant in a long term study • SFchronic: Safety Factor, determined according the number of trophic levels (fish, crustaceous, algae) studied • TFchronic: NOEC/SFchronic

[2] = test system: aquatic trophic levels (fish, crustaceous, algae); test: Chronic aquatic toxicity (aquatic trophic levels); assay type: in vivo
Excerpt: as §1, §2

C 12/15 A 1-3 EO sulfate
TFacute [1]: 0.0041
TFchronic ([2]; NOEC/SFchronic): 0.01
NOEC ([2]; chronic toxicity, long term study): 0.1
